Columns and labels:
[1] = Assay 2. Stability in Simulated Intestinal Fluid (SIF); format: in vitro ADME; conditions: 1 μM, 37° C., SIF pH 6.7 with pancreatin
Outline: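 Degradation rate measured by LC/MS after acetonitrile quench of timed aliquots, starting at T0. Test compound 1 μM in simulated intestinal fluid (pH 6.7 phosphate buffer, FaSSIF powder, pancreatin), shaken at 37 °C.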

[2] = Assay 1. Stability in Simulated Gastric Fluid (SGF); format: in vitro ADME; conditions: 1 μM, 37° C., SGF pH 1.6 with pepsin
Outline: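 Simulated gastric fluid, prepared fresh as NaCl buffer at pH 1.6 with 0.1 mg/mL pepsin and FaSSIF powder, received test compound to 1 μM final and was held at 37 °C. LC/MS of acetonitrile-quenched samples, taken immediately and then periodically, gave degradation rates.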

C57BL/6 DIO mice = assay: DIO animal model of NAFLD/NASH in young mice (Example 16); format: in vivo; parameters: OGTT: unit not given beside the values; conditions: ad libitum in HFD; for % Weight change: 12 weeks; for OGTT: Day 82, 2 g/kg glucose PO; for OGTT / % HbA1c: ctrl HFD; for % Difference compared to ctrl: weight change vs HFD ctrl
Excerpt: Species (number, sex, age/weight): C57BL/6 DIO mice (120+10 spares, male, ˜18 weeks of age) from Jackson Laboratories, Stock #380050. Note: 18 week old DIO mice sent sent with a minimum body weight of 39 grams. Spare animals may be used to replace study animals, as required, euthanized after completion of dose administration or transferred to Testing Facility Docket 07-12.
Cage Side Observations (Animal Health Checks): Cage side animal's health checks will be performed at least once daily to check for general health, mortality and moribundity. Clinical Observations: Clinical observations will be performed per exception. Body Weights: Body weights for all animals will be recorded prior to Day 1 and at least twice weekly thereafter, including prior to necropsy ([…]).
Dose Administration: Dosing for Groups 3-8 will be provided ad libitum in the diet. Dosing for Groups 9 (Saline) and 10 (Semaglutide at 123.4 μg/kg) in a 5 mL/kg volume, will begin on Day 1, and be performed 3 times weekly for 12 weeks by SC administration. Residual Test Article: All residual high fat diets will be frozen at nominally −20° C., and at the end of the study, several pellets of the diets for groups 2-9 (in 50-ml conical tubes) will be shipped to Sponsor, and the rest will be discarded. Residual control diets (group 1) will be stored ambient, and at the end of the study, several pellets in a 50 mL conical tube will be shipped to Sponsor and the rest is discarded. Residual test material for Group 10 will be stored at nominally −70° C., and at the end of the study, an aliquot of test material will be shipped to Sponsor, and the rest will be discarded.
(§1) Oral Glucose Tolerance Test (oGTT) On Day 82 (+/−2 days) an oGTT will be performed. Following an approximate 4 hour fast, 2 g/kg glucose (50% Dextrose diluted in sterile water for injection to a concentration of 0.4 g/mL) will be administered at 5 mL/kg via oral gavage (PO). Blood will be collected pre-glucose challenge (t=0) and at t=15, 30, 60, 90, and 120 minutes following the glucose challenge. Whole blood glucose levels will be evaluated at all time points using a handheld glucometer and will be reported in the Data Submission. This will be scheduled on a Tuesday or Thursday to avoid Group 9/10 dosing days.
as §1, with “Submission.” for “Submission. This will be scheduled on a Tuesday or Thursday to avoid Group 9/10 dosing days.”

SMILES | Assay 2 (SIF) (% @ Remaining 4 hours) [1] | Assay 1 (SGF) (% Remaining @ 1 hours) [2] | % Weight change (C57BL/6 DIO mice) [%] | OGTT (C57BL/6 DIO mice) | % HbA1c (C57BL/6 DIO mice) [%] | % Difference compared to ctrl (C57BL/6 DIO mice) [%]
CC(=O)Oc1cc(OC(C)=O)c2c(=O)c(OC(C)=O)c(-c3ccc(OC(C)=O)c(OC(C)=O)c3)oc2c1 [Compound 14, [2-acetoxy-4-(3,5,7-triacetoxy-4-oxo-chromen-2-yl)phenyl] acetate] | A (A: <25% of the tested compound remaining) | C (C: >75% of the tested compound remaining) | 16 | 32591 | 6.93 | −7
CC(=O)Oc1cc(OC(C)=O)c2c(c1)O[C@H](c1cc(OC(C)=O)c(OC(C)=O)c(OC(C)=O)c1)[C@H](OC(=O)c1cc(OC(C)=O)c(OC(C)=O)c(OC(C)=O)c1)C2 [Compound 4, [(2R,3R)-5,7-diacetoxy-2-(3,4,5-triacetoxyphenyl)chroman-3-yl] 3,4,5-triacetoxybenzoate] | A (A: <25% of the tested compound remaining) | C (C: >75% of the tested compound remaining) | 19 | 25072 | 4.89 | −4
CC(=O)O[C@H]1OC[C@H](OC(C)=O)[C@H](OC(C)=O)[C@H]1OC(C)=O [Compound 53, (2R,3R,4S,5S)-tetrahydro-2H-pyran-2,3,4,5-tetrayl Tetraacetate] | A (A: <25% of the tested compound remaining) | C (C: >75% of the tested compound remaining) | 10 | 25779 | 4.35 | −13

— patent publication US10953027B2, “Active agents and methods of their use for the treatment of metabolic disorders and nonalcoholic fatty liver disease” (Flagship Pioneering Innovations V, Inc., priority 2018, dated 2021)
